Results on 10 molecules are retold here after patent US8772275B2, “Mediators of hedgehog signaling pathways, compositions and uses related thereto” (Curis, Inc., priority 2001, dated 2014).

The subject of one test is Hedgehog pathway. The test is described as follows: Gli-Luc reporter assay in human embryonic palatal mesenchyme cells, OCT-SHH stimulated. Type of test: cell-based. The conditions noted are these: human-based Gli-Luc assay, OCT-SHH 1 μg/ml. How it is done: (§1) Compounds to be tested are dissolved in DMSO to a concentration of 10 mM, and stored at −20° C. To activate the Hedgehog pathway in the assay cells, an octylated (lipid-modified) form of the N-terminal fragment of the Sonic Hedgehog protein (OCT-SHH) is used. This N-terminal SHH fragment is produced bacterially. See, for example, Taylor F R, et al., Biochemistry 2001, 40, 4359-71.
(§2) Compounds may be tested in the “Gli-Luc” assay below, using the cell line 10T1/2(s12), wherein the cells contain a Hedgehog-responsive reporter construct utilizing Luciferase as the reporter gene. In this way, Hedgehog pathway signaling activity can be measured via the Gli-Luc response.
(§3) 10t1/2(s12) cells are plated in a 96-well micro-titer plate (MTP) at 20,000 cells/well in full medium [DMEM with […]]. Then plates are placed in the incubator for incubation overnight (O/N), at 37° C. and 5% CO2. After 24 h, the medium is replaced with Luciferase-assay medium (DMEM with 0.5% FBS). Compounds are thawed and diluted in assay medium at 3:1000 (about 300-fold) resulting in a starting concentration of about 0.0003 μM to 30 μM.
(§4) Subsequently, 150 μl each sample is added to the first wells (in triplicate). The MTP samples are then diluted at 3-fold dilutions to a total of seven wells, ultimately resulting in a regiment of seven dilutions in triplicate, for each compound. Next, the protein ligand OCT-SHH is diluted in Luciferase-assay medium and added to each well at a final concentration of […] Plates are then returned to the incubator for further incubation O/N, at 37° C. and 5% CO2. After about 24 h, plates are removed from the incubator and the medium is aspirated/discarded. Wells are washed once with assay buffer [PBS+1 mM Mg^2+ and 1 mM Ca^2+]. Then 50 μl of assay buffer is added to each well. The Luciferase assay reagent is prepared as described by the vendor (LucLite kit from Packard), and 50 μl is added to each well. Plates are incubated at room temperature (RT) for about 30 minutes after which the signals are read, again at RT, on a Topcount (Packard).
Similar assays were performed using human cell lines (specifically, human embryonic palatal mesenchyme cells, modified with the Gli-Luc construct as described above) in a growth medium of MEM/Sodium Pyruvate w/10% MS, and an assay medium of MEM/Sodium Pyruvate w/0.5% FBS. OCT-SHH was added to reach a final concentration of 1 μg/ml.
For the molecule `O=C(Nc1ccc(Cl)c(-c2nc3ccccc3[nH]2)c1)c1cccnc1` [B], the IC50 was less than 50 nM. In turn, `O=C(Nc1ccc(Cl)c(-c2nc3ccccc3[nH]2)c1)c1ccc2c(c1)OCCO2` [C] registered a concentration for half-maximal inhibition (IC50) of less than 500 nM. Still for that read-out and setting: then `COc1cc(OC)cc(C(=O)Nc2ccc(Cl)c(-c3nc4ccccc4[nH]3)c2)c1` [Compound A], with less than 50 nM; and `O=C(Nc1ccc(Cl)c(-c2nc3cc(C(F)(F)F)ccc3[nH]2)c1)c1ccc2c(c1)OCCO2` [W], with less than 10 nM; and `Cc1ccc2nc(-c3cc(NC(=O)c4ccc5c(c4)OCCO5)ccc3Cl)[nH]c2c1C` [X], with less than 50 nM. The same measure, in the same setting: then `COc1ccc(C(=O)Nc2ccc(Cl)c(-c3nc4cc(C)c(C)cc4[nH]3)c2)cc1Cl` [Y], with less than 50 nM.

`COc1cc(OC)cc(C(=O)Nc2ccc(Cl)c(-c3nc4c(C)cccc4[nH]3)c2)c1` [Z] registered a half-inhibitory concentration (IC50) of less than 50 nM.

The next test has as its system hedgehog signaling pathway. Description: Colon cancer cells co-cultured with 10T(S12) reporter cells, luciferase activity. Type of test: cell-based. The conditions noted are these: 20,000 colon cancer cells mixed with 10,000 10T(S12) cells, 72 hrs incubation. How it is done: 20,000 colon cancer cells were mixed with 10,000 10T(S12) cells (described above), and the mixture was added to each well in a 96-well plate. A subject compound or control vehicle was added to the culture on the next day. After 72 hrs of incubation, the cells were lysed for measuring the luciferase activity. […] FIG. 35 depicts the comparative inhibition of hedgehog-induced activation in S12 cells for the antibodies 1E6 and 5E1 and compound A, and the comparative inhibition of endogenous hedgehog activity in colon cancer cells for these compositions.
In the case of `COc1cc(OC)cc(C(=O)Nc2ccc(Cl)c(-c3nc4ccccc4[nH]3)c2)c1` [Compound A], the “inhibition of luciferase activity compared to vehicle” value is “able to inhibit the lucferase activity”.

A further test concerns Hedgehog pathway. The test is described as follows: Gli-Luc reporter assay in 10T1/2(s12) cells, OCT-SHH stimulated. The conditions noted are these: compounds E-V: not from the human-based assay; Gli-Luc assay in 10T1/2(s12) cells. Type of test: cell-based. How it is done:
as §1, §2, §3, §4
`Cc1ccccc1OCC(=O)Nc1ccc(Cl)c(-c2nc3ccccc3[nH]2)c1` [E] had an IC50 of less than 5000 nM. On the same count and under the same terms, the result for `Cc1ccc(C(=O)Nc2ccc(Cl)c(-c3nc4ccccc4[nH]3)c2)cc1[N+](=O)[O-]` [J] reads less than 5000 nM; that for `COc1cc(C(=O)Nc2ccc(Cl)c(-c3nc4ccccc4[nH]3)c2)cc(OC)c1OC` [L], less than 5000 nM.
